Measured values: US20060160070A1, “Association-based epitome design” (Microsoft Corporation, priority 2004, published 2006)

Experiments:
HLA A*1101 [1] = target: T1, HLA A*1101 (Homo sapiens, UniProt P04439, A114D/D185E/E176A/F33Y/L180Q/S129P/T187R); experiment: ITOPIA peptide binding assay; conditions: 1.11×10^−4M of peptide
T1 construct: purchased
Description: (§1) Peptide binding, off-rate and affinity were measured according to the protocols described in the ITOPIA Epitope Discovery System Customer Guide. To conduct the experiments, ninety-six (96) micro-titer plates coated with MHC molecules representing the HLA alleles listed in Table 9 were used to identify candidate peptides. Determinations were performed in duplicate using an ELISA plate reader. The peptide binding assay used measures the ability of individual peptides to bind to the HLA molecules under standardized optimal binding conditions. The assay was performed for all the test peptides across the selected HLA alleles. The test peptides identified as “binders” were characterized further in terms of affinity and dissociation experiments. The off-rate assay used evaluates the dissociation of previously bound peptide at defined time points (expressed as the t1/2 value). The affinity assay used measures the relative binding affinities for the MHC molecules determined by incubating candidate peptides identified in the initial peptide binding assay at increasing concentrations (expressed as quantity of peptide needed to achieve 50% binding or ED50 value).
(§2) The binding of the test peptides (Table 8) to the HLA molecules (Table 9) was performed at a concentration of 1.11×10^−4M of peptide under optimal, standardized test conditions. A control peptide was run in parallel on the same plate and at the same concentration as the test peptides. […] The level of binding is expressed as a percent of positive control peptide binding for each allele.

HLA A*0101 [2] = target: T2, HLA A*0101 (Homo sapiens, UniProt P04439, A114D/A174V/A182V/D101N/D185E/E176A/E190D/L180R/Q94H/R68K/S129P/T187R/V100A/V91M/W191G); experiment: ITOPIA peptide binding assay; conditions: 1.11×10^−4M of peptide
T2 construct: purchased
Description: as §1, §2

HLA A*0301 [3] = target: T3, HLA A*0301 (Homo sapiens, UniProt P04439); experiment: ITOPIA peptide binding assay; conditions: 1.11×10^−4M of peptide
T3 construct: purchased
Description: as §1, §2

HLA B*0801 [4] = target: T4, HLA B*0801 (Homo sapiens, UniProt P01889, A93T/A95T/D138N/E176V/E187T/K202T/Q94N/R180D/S35A/V36M/Y33D/Y91F); experiment: ITOPIA peptide binding assay; conditions: 1.11×10^−4M of peptide
T4 construct: purchased
Description: as §1, §2

HLA B*1501 [5] = target: T5, HLA B*1501 (Homo sapiens, UniProt P01889, A329T/A93T/A95T/C349S/D201E/D98Y/E187L/E204Q/E69M/E70A/K202T/N87E/Q94N/R155S/R180W/S121R/S35A/S48A/V306I/V36M/Y140S/Y91S); experiment: ITOPIA peptide binding assay; conditions: 1.11×10^−4M of peptide
T5 construct: purchased
Description: as §1, §2

HLA A*0201 [6] = target: T6, HLA A*0201 (Homo sapiens, UniProt P04439, D140Y/D185E/D98H/E176V/E277Q/G131W/G231S/I119V/I121R/I166T/I218V/L300P/L318F/N151K/N90K/P208A/P217A/Q86G/Q94H/R138H/R169H/T345S); experiment: ITOPIA peptide binding assay; conditions: 1.11×10^−4M of peptide
Description: as §1, §2

HLA B*0702 [7] = target: T7, HLA B*0702 (Homo sapiens, UniProt P01889); experiment: ITOPIA peptide binding assay; conditions: 1.11×10^−4M of peptide
T7 construct: purchased
Description: as §1, §2

HLA A*2402 [8] = target: T8, HLA A*2402 (Homo sapiens, UniProt P04439, D101N/D140Y/D185E/E176V/E190D/F33S/G103R/G107R/I119L/I121M/I306V/K335N/L105A/L180Q/L300P/N151K/N90K/Q86E/Q94H/R106L/R138H/R89G/T104I/T345S/V100E/W191G/Y123F); experiment: ITOPIA peptide binding assay; conditions: 1.11×10^−4M of peptide
Description: as §1, §2

HLA B*0801 [9] = target: T4, HLA B*0801; experiment: ITOPIA off-rate assay; format: binding; conditions: 37° C., one-phase exponential decay
Description: as §1
(§3) The peptides initially identified as binders were evaluated for stability based on their ability to remain bound to MHC molecules at 37° C. at time points 0, 0.5, 1, 1.5, 2, 4, 6 and 8 hours. […] The values obtained for each time point (in duplicate) are expressed (Table 11) as a percentage of the positive control. To calculate the t1/2 and goodness-of-fit, as measured by r^2, for each peptide, a one-phase exponential decay curve, with a plateau given equal to 0, was generated using […] PRISM software.

HLA B*0702 [10] = target: T7, HLA B*0702; experiment: ITOPIA off-rate assay; format: binding; conditions: 37° C., one-phase exponential decay
Description: as §1, §3

HLA A*1101 [11] = target: T1, HLA A*1101; experiment: Multi-parametric analysis iScore; format: binding; parameters: scale not given here; conditions: index integrating t1/2 and ED50
Description: (§4) Multi-parametric analysis was performed to integrate the half-life (t½) and ED50 parameters in an index (iScore). The iScore (Table 13) reflects the capability of a peptide to reconstitute with MHC molecules in a stable complex, defining its overall level of binding.

HLA A*0101 [12] = target: T2, HLA A*0101; experiment: Multi-parametric analysis iScore; format: binding; parameters: scale not given here; conditions: index integrating t1/2 and ED50
Description: as §4

HLA A*0301 [13] = target: T3, HLA A*0301; experiment: Multi-parametric analysis iScore; format: binding; parameters: scale not given here; conditions: index integrating t1/2 and ED50
Description: as §4

HLA B*0801 [14] = target: T4, HLA B*0801; experiment: Multi-parametric analysis iScore; format: binding; parameters: scale not given here; conditions: index integrating t1/2 and ED50
Description: as §4

HLA B*1501 [15] = target: T5, HLA B*1501; experiment: Multi-parametric analysis iScore; format: binding; parameters: scale not given here; conditions: index integrating t1/2 and ED50
Description: as §4

HLA A*0201 [16] = target: T6, HLA A*0201; experiment: Multi-parametric analysis iScore; format: binding; parameters: scale not given here; conditions: index integrating t1/2 and ED50
Description: as §4

HLA B*0702 [17] = target: T7, HLA B*0702; experiment: Multi-parametric analysis iScore; format: binding; parameters: scale not given here; conditions: index integrating t1/2 and ED50
Description: as §4

HLA A*2402 [18] = target: T8, HLA A*2402; experiment: Multi-parametric analysis iScore; format: binding; parameters: scale not given here; conditions: index integrating t1/2 and ED50
Description: as §4

HLA A*1101 [19] = target: T1, HLA A*1101; experiment: ITOPIA off-rate assay; format: binding; conditions: 37° C., one-phase exponential decay
Description: as §1, §3

HLA A*0201 [20] = target: T6, HLA A*0201; experiment: ITOPIA off-rate assay; format: binding; conditions: 37° C., one-phase exponential decay
Description: as §1, §3

HLA A*2402 [21] = target: T8, HLA A*2402; experiment: ITOPIA off-rate assay; format: binding; conditions: 37° C., one-phase exponential decay
Description: as §1, §3

HLA B*1501 [22] = target: T5, HLA B*1501; experiment: ITOPIA off-rate assay; format: binding; conditions: 37° C., one-phase exponential decay
Description: as §1, §3

target cells = conditions: in vitro; compared with consensus epitope; cited from earlier work

Sequence | level of binding, percent of positive control peptide binding (HLA A*1101 [1]) | level of binding, percent of positive control peptide binding (HLA A*0101 [2]) | level of binding, percent of positive control peptide binding (HLA A*0301 [3]) | level of binding, percent of positive control peptide binding (HLA B*0801 [4]) | level of binding, percent of positive control peptide binding (HLA B*1501 [5]) | level of binding, percent of positive control peptide binding (HLA A*0201 [6]) | level of binding, percent of positive control peptide binding (HLA B*0702 [7]) | level of binding, percent of positive control peptide binding (HLA A*2402 [8]) | B*0801 t1/2 (HLA B*0801 [9]) [h] | B*0702 t1/2 (HLA B*0702 [10]) [h] | iScore (HLA A*1101 [11]) | iScore (HLA A*0101 [12]) | iScore (HLA A*0301 [13]) | iScore (HLA B*0801 [14]) | iScore (HLA B*1501 [15]) | iScore (HLA A*0201 [16]) | iScore (HLA B*0702 [17]) | iScore (HLA A*2402 [18]) | further results
FPRIWLHGL [compound 152] | 0% of positive control | 0% of positive control | 0% of positive control | 39% of positive control | 3% of positive control | 9% of positive control | 132% of positive control | 41% of positive control | 1.8 | 1.1 | 0 | 0 | 0 | 0.189 | 0 | 0 | 0.421 | 0 | 
KLAGRWPVT [compound 157] | 19% of positive control | 2% of positive control | 9% of positive control | 4% of positive control | 6% of positive control | 51% of positive control | 3% of positive control | 8% of positive control |  |  | 0.039 | 0 | 0 | 0 | 0 | 0.129 | 0 | 0 | A*1101 t1/2 (HLA A*1101 [19]): 1.6 h; A*0201 t1/2 (HLA A*0201 [20]): 1.1 h
RGRQKVVSI [compound 153] | 6% of positive control | 0% of positive control | 0% of positive control | 71% of positive control | 7% of positive control | 6% of positive control | 88% of positive control | 29% of positive control | 1.2 | 1.3 | 0 | 0 | 0 | 0.165 | 0 | 0 | 0.271 | 0.050 | A*2402 t1/2 (HLA A*2402 [21]): 1.8 h
RGRQKVVSL [compound 68] | 0% of positive control | 0% of positive control | 0% of positive control | 73% of positive control | 55% of positive control | 5% of positive control | 96% of positive control | 17% of positive control | 1.2 | 1.1 | 0 | 0 | 0 | 0.100 | 0.106 | 0 | 0.307 | 0 | B*1501 t1/2 (HLA B*1501 [22]): 3.5 h
TAFTIPST |  |  |  |  |  |  |  |  |  |  |  |  |  |  |  |  |  |  | increase in the peptide concentration required to sensitize target cells for 50% lysis (SD50) by CTLs (target cells): hundred-fold increase
